What was measured:
[1] = target: T1, native CFTR, genotype F508del/F508del (Homo sapiens, UniProt P13569, DEL508-508); assay: Ussing chamber CFTR-mediated short-circuit current (Isc) in F508del/F508del human bronchial epithelial cells; format: cell-based; settings: for EC50: F508del/F508del epithelia of hBE cells, basal F508del‐CFTR expression, Isc, 27°C, read-out: EC50 (μM) (95% CI); for Emax: HBE, read-out: Maximal effect (%) (95% CI)
T1 construct: For functional studies of native CFTR, we used primary cultures of human bronchial epithelial cells; host or cells: primary human bronchial epithelial cells, F508del/F508del, air-liquid interface cultures
Excerpt: For functional studies of native CFTR, we used primary cultures of human bronchial epithelial cells of genotypes F508del/F508del and F508del/G551D. Passage 1 (P1) human bronchial epithelial cells from SH Randell (University of North Carolina [UNC] Cystic Fibrosis Center Tissue Procurement and Cell Culture Core) were differentiated at an air–liquid interface as described by Neuberger et al., ([2011]) with some modifications. The research conducted on human cells at UNC has been verified as compliant with Pfizer policies, including institutional review board or institutional ethics committee approval. Cells were thawed and expanded in BEGM™ Bronchial Epithelial Cell Growth Medium (cat. no. CC‐3170, Lonza, USA) supplemented with retinoic acid (10 nM) and banked at P2. For functional assays, P2 cells were expanded to P4, and 5 × 10^5 P4 human bronchial epithelial cells were seeded in growth medium on Snapwell filter inserts (cat. no. 3801, Corning, NY, USA). Cells were switched to differentiation medium the following day and cultured submerged for 3 days before the medium was removed from the apical membrane to establish an air–liquid interface. Thereafter, the basolateral medium was changed every 2–3 days and mucus washed from the apical membrane every 2–3 weeks and the day prior to use starting 21 days after initiating air–liquid interface culture.
After >30 days of air–liquid interface culture on Snapwell filter inserts, human bronchial epithelial cells formed well differentiated, electrically tight epithelia (Rt > 200 Ω cm^2). Prior to study, F508del/F508del and F508del/G551D human bronchial epithelial cell cultures were incubated at 37°C and 5% CO2.
Epithelia were mounted in Ussing chambers and data acquired and analysed as described above for Ussing chamber studies of FRT cells heterologously expressing CFTR with the following exceptions. Both the apical and basolateral membranes were bathed in solutions containing (mM): 137 NaCl, 4 KCl, 1.8 CaCl2, 1 MgCl2, 10 Na HEPES, and 10 glucose (pH 7.4 with NaOH). Epithelia of F508del/G551D human bronchial epithelial cells were studied at 35°C, whereas those of F508del/F508del human bronchial epithelial cells were assayed at 27°C to maintain the apical membrane expression of F508del‐CFTR. After cancelling voltage offsets, transepithelial voltage was clamped at 0 mV and short‐circuit current (Isc) recorded continuously. The protocol to record CFTR‐mediated Isc was the same as for ICl ^apical measurements except that amiloride (30 μM, apical solution) was added to inhibit the epithelial Na^+ channel before forskolin (10 μM, apical and basolateral solutions) addition.

[2] = target: F508del‐CFTR (Homo sapiens, UniProt P13569, DEL508-508); assay: Thermal stability (deactivation) of F508del‐CFTR in excised inside-out membrane patches at 37°C; format: biochemical; design: expressed in transfected cells; BHK cells from MD Amaral
Description: To investigate the effects of CFTR potentiators on the plasma membrane stability of F508del‐CFTR, we monitored its thermal stability in excised inside‐out membrane patches at 37°C (Wang et al., [2014]). Membrane patches were excised and F508del‐CFTR Cl^− channels activated at 27°C. Once channels were fully activated and potentiated, the temperature of the intracellular solution was increased to 37°C, which took 2–3 min. To quantify data, we calculated open probability (Po) and normalised Po values in 30‐s intervals over a 9‐min period (Wang et al., [2014]).

T1 sequence (P13569 with tags, fused parts or gaps DEL508-508): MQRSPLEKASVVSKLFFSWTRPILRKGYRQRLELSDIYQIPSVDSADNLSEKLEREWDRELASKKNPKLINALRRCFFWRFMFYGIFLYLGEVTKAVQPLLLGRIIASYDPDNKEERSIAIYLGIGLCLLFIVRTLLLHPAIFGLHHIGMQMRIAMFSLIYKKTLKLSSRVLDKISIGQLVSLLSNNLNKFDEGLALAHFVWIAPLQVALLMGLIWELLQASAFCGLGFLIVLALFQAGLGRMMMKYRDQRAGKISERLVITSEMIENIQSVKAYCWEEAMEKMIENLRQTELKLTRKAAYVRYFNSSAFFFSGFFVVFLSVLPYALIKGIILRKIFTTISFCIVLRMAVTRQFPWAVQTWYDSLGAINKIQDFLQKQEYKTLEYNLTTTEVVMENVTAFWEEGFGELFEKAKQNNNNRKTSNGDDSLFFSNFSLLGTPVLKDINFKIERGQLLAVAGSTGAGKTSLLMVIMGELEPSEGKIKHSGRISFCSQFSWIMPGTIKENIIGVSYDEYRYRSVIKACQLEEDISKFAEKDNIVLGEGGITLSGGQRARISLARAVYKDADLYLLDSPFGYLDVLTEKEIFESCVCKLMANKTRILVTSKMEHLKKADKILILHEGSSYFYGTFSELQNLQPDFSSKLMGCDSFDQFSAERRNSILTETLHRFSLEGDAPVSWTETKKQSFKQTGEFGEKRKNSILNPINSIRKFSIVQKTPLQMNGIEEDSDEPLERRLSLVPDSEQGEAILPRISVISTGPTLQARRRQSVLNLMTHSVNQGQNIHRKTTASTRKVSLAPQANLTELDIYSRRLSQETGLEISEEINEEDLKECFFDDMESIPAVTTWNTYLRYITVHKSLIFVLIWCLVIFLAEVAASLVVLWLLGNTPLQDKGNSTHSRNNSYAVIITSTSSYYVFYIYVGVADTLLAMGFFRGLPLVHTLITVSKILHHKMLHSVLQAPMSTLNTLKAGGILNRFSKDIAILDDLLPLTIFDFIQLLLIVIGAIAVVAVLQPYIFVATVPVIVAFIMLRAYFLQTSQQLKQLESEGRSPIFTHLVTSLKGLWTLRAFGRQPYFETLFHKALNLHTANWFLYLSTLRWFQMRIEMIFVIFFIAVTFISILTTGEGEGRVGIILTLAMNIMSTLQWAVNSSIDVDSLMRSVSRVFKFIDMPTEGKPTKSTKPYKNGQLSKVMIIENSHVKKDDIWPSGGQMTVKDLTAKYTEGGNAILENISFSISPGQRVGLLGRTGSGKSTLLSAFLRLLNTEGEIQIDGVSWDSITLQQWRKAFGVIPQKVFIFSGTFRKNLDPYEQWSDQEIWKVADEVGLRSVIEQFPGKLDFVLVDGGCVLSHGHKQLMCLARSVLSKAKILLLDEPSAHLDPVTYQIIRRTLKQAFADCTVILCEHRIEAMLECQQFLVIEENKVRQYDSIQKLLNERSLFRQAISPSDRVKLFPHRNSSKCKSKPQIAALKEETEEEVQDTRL
F508del‐CFTR, sequence (P13569 with tags, fused parts or gaps DEL508-508): as above

Compound	EC50 [1]	Emax [1]	increase of time to normalised Po of 50% relative to low temperature-rescued ([2]; compound 10 μM)	delay of F508del‐CFTR deactivation (time to reach normalised Po of 50%) ([2]; compound 10 μM, ATP 1 mM, PKA 75 nM, versus low temperature-rescued control)	acceleration of F508del‐CFTR deactivation (time to reach normalised Po of 50%) ([2]; compound 1 μM, ATP 1 mM, PKA 75 nM, versus low temperature-rescued control)
Cc1ncccc1CNC(=O)c1ccc2c(c1)CC[C@H]1C[C@](O)(CCC(F)(F)F)CC[C@]21Cc1ccccc1 (racemic) [CP‐628006, rac‐(4bR,7R,8aS)‐4b‐benzyl‐7‐hydroxy‐N‐((2‐methylpyridin‐3‐yl)methyl)‐7‐(3,3,3‐trifluoropropyl)‐4b,5,6,7,8,8a,9,10‐octahydrophenanthrene‐2‐carboxamide]	0.062 µM	56%	approximately 67%	~ 90 s	–
CC(C)(C)c1cc(C(C)(C)C)c(NC(=O)c2c[nH]c3ccccc3c2=O)cc1O [ivacaftor, reference compound]	0.002 µM	102%	–	–	~ 30 s

Reference: paper PMC9304199, “A small molecule CFTR potentiator restores ATP‐dependent channel gating to the cystic fibrosis mutant G551D‐CFTR” (British Journal of Pharmacology, 2022)
